# Measured values: PubChem BioAssay (NCI)
#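 Step 1: Grow cells in 96-well plates. Step 2: Expose to compound for 48 hours at 5 concentrations. Step 3: Interpolate endpoints linearly; if unreached, use highest concentration. Abbreviation: GI50, concentration required for 50% inhibition of growth. Definition used: TGI = concentration required for complete inhibition of growth.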
# Key:
# Assay in all cases: growth of human tumour cells (NCI), 48 h
# [1] = tested on: 786-0 renal
# [2] = tested on: A498 renal
# [3] = tested on: A549 NSCLC
# [4] = tested on: ACHN renal
# [5] = tested on: BT-549 breast
# [6] = tested on: CAKI-1 renal
# [7] = tested on: CCRF-CEM leukemia
# [8] = tested on: COLO 205 colon
# [9] = tested on: DU-145 prostate
# [10] = tested on: EKVX NSCLC
# [11] = tested on: HCC-2998 colon
# [12] = tested on: HCT-116 colon
# [13] = tested on: HCT-15 colon
# [14] = tested on: HL-60(TB) leukemia
# [15] = tested on: HOP-62 NSCLC
# [16] = tested on: HOP-92 NSCLC
# [17] = tested on: HS 578T breast
# [18] = tested on: HT29 colon
# [19] = tested on: IGROV1 ovarian
# [20] = tested on: K-562 leukemia
# [21] = tested on: KM12 colon
# [22] = tested on: LOX IMVI melanoma
# [23] = tested on: M14 melanoma
# [24] = tested on: MALME-3M melanoma
# [25] = tested on: MCF7 breast
# [26] = tested on: MDA-MB-231 breast
# [27] = tested on: MDA-MB-435
# [28] = tested on: MOLT-4 leukemia
# [29] = tested on: NCI-H226 lung
# [30] = tested on: NCI-H23 lung
# [31] = tested on: NCI-H460 lung
# [32] = tested on: NCI-H522 lung
# [33] = tested on: NCI/ADR-RES ovarian
# [34] = tested on: OVCAR-4 ovarian
# [35] = tested on: OVCAR-5 ovarian
# [36] = tested on: OVCAR-8 ovarian
# [37] = tested on: PC-3 prostate
# [38] = tested on: RPMI-8226 leukemia
# [39] = tested on: RXF 393 renal
# [40] = tested on: SF-268 CNS
# [41] = tested on: SF-295 CNS
# [42] = tested on: SF-539 CNS
# [43] = tested on: SK-MEL-2 melanoma
# [44] = tested on: SK-MEL-28 melanoma
# [45] = tested on: SK-MEL-5 melanoma
# [46] = tested on: SK-OV-3 ovarian
# [47] = tested on: SN12C renal
# [48] = tested on: SNB-19 CNS
# [49] = tested on: SNB-75 CNS
# [50] = tested on: SR leukemia
# [51] = tested on: SW-620 colon
# [52] = tested on: T-47D breast
# [53] = tested on: TK-10 renal
# [54] = tested on: U251 CNS
# [55] = tested on: UACC-257 melanoma
# [56] = tested on: UACC-62 melanoma
# [57] = tested on: UO-31 renal
smiles,measurement,setting,value
Fc1ccc(-c2cc3nc(C(Cl)Cl)nc(-c4ccco4)n3n2)cc1,GI50,[1],2.77 µM
same,TGI,[1],27.5 µM
same,GI50,[2],1.21 µM
same,TGI,[2],2.62 µM
same,GI50,[3],0.77 µM
same,TGI,[3],5.37 µM
same,GI50,[4],0.296 µM
same,TGI,[4],1.34 µM
same,GI50,[5],35.3 µM
same,TGI,[5],> 100 µM
same,GI50,[6],0.948 µM
same,TGI,[6],4.36 µM
same,GI50,[7],> 100 µM
same,TGI,[7],> 100 µM
same,GI50,[8],0.624 µM
same,TGI,[8],2.48 µM
same,GI50,[9],0.303 µM
same,TGI,[9],0.954 µM
same,GI50,[10],1.28 µM
same,TGI,[10],4.86 µM
same,GI50,[11],0.4 µM
same,TGI,[11],1.65 µM
same,GI50,[12],0.31 µM
same,TGI,[12],1.1 µM
same,GI50,[13],0.486 µM
same,TGI,[13],16.4 µM
same,GI50,[14],0.3 µM
same,GI50,[15],0.504 µM
same,TGI,[15],2.84 µM
same,GI50,[16],0.541 µM
same,TGI,[16],3.37 µM
same,GI50,[17],1.45 µM
same,TGI,[17],4.91 µM
same,GI50,[18],0.312 µM
same,TGI,[18],1.71 µM
same,GI50,[19],11.6 µM
same,TGI,[19],> 100 µM
same,GI50,[20],1.79 µM
same,TGI,[20],> 100 µM
same,GI50,[21],0.877 µM
same,TGI,[21],3.66 µM
same,GI50,[22],> 100 µM
same,TGI,[22],> 100 µM
same,GI50,[23],> 100 µM
same,TGI,[23],> 100 µM
same,GI50,[24],> 100 µM
same,TGI,[24],> 100 µM
same,GI50,[25],0.273 µM
same,TGI,[25],3.24 µM
same,GI50,[26],0.368 µM
same,TGI,[26],2.33 µM
same,GI50,[27],1.54 µM
same,TGI,[27],6.82 µM
same,GI50,[28],> 47.4 µM
same,TGI,[28],> 100 µM
same,GI50,[29],> 89.5 µM
same,TGI,[29],> 100 µM
same,GI50,[30],2.44 µM
same,TGI,[30],> 58 µM
same,GI50,[31],0.217 µM
same,TGI,[31],0.533 µM
same,GI50,[32],> 87.9 µM
same,TGI,[32],> 100 µM
same,GI50,[33],0.562 µM
same,TGI,[33],6.04 µM
same,GI50,[34],2.62 µM
same,TGI,[34],17.5 µM
same,GI50,[35],1.32 µM
same,TGI,[35],6.7 µM
same,GI50,[36],0.809 µM
same,TGI,[36],> 100 µM
same,GI50,[37],0.727 µM
same,TGI,[37],3.88 µM
same,GI50,[38],0.481 µM
same,TGI,[38],4.03 µM
same,GI50,[39],0.413 µM
same,TGI,[39],2.51 µM
same,GI50,[40],1.24 µM
same,TGI,[40],8.16 µM
same,GI50,[41],0.663 µM
same,TGI,[41],4.08 µM
same,GI50,[42],0.832 µM
same,TGI,[42],3.71 µM
same,GI50,[43],5.36 µM
same,TGI,[43],20.4 µM
same,GI50,[44],2.46 µM
same,TGI,[44],6.46 µM
same,GI50,[45],> 100 µM
same,TGI,[45],> 100 µM
same,GI50,[46],2.88 µM
same,TGI,[46],> 49.4 µM
same,GI50,[47],> 100 µM
same,TGI,[47],> 100 µM
same,GI50,[48],0.541 µM
same,TGI,[48],5.81 µM
same,GI50,[49],0.638 µM
same,TGI,[49],3.99 µM
same,GI50,[50],17.8 µM
same,TGI,[50],> 100 µM
same,GI50,[51],0.402 µM
same,TGI,[51],3.55 µM
same,GI50,[52],1.01 µM
same,TGI,[52],6.71 µM
same,GI50,[53],3.54 µM
same,TGI,[53],7.5 µM
same,GI50,[54],0.309 µM
same,TGI,[54],2.7 µM
same,GI50,[55],3.53 µM
same,TGI,[55],19.6 µM
same,GI50,[56],3.61 µM
same,TGI,[56],> 53.8 µM
same,GI50,[57],1.32 µM
same,TGI,[57],5.78 µM
COc1ccc(Cn2cc3c(c2-c2cc(OC)c(OC)c(OC)c2)CCCc2cnoc2-3)cc1,GI50,[1],0.669 µM
same,TGI,[1],> 100 µM
same,GI50,[2],0.696 µM
same,TGI,[2],7.11 µM
same,GI50,[3],2.34 µM
same,TGI,[3],> 100 µM
same,GI50,[4],0.9 µM
same,TGI,[4],> 100 µM
same,GI50,[5],0.482 µM
same,TGI,[5],> 100 µM
same,GI50,[6],0.49 µM
same,TGI,[6],> 100 µM
same,GI50,[7],0.415 µM
same,TGI,[7],> 100 µM
same,GI50,[9],4.11 µM
same,TGI,[9],> 100 µM
same,GI50,[10],3 µM
same,TGI,[10],> 100 µM
same,GI50,[11],1.61 µM
same,TGI,[11],10.6 µM
same,GI50,[12],0.391 µM
same,TGI,[12],> 100 µM
same,GI50,[13],0.478 µM
same,TGI,[13],> 100 µM
same,GI50,[14],0.35 µM
same,TGI,[14],> 100 µM
same,GI50,[15],2.22 µM
same,TGI,[15],> 100 µM
same,GI50,[16],1.27 µM
same,TGI,[16],> 100 µM
same,GI50,[17],1.54 µM
same,TGI,[17],> 100 µM
same,GI50,[18],1.13 µM
same,TGI,[18],> 100 µM
same,GI50,[19],0.562 µM
same,TGI,[19],> 100 µM
same,GI50,[20],0.422 µM
same,TGI,[20],> 100 µM
same,GI50,[21],0.692 µM
same,TGI,[21],> 100 µM
same,GI50,[22],0.997 µM
same,TGI,[22],> 100 µM
same,GI50,[25],0.437 µM
same,TGI,[25],> 100 µM
same,GI50,[26],2.54 µM
same,TGI,[26],> 100 µM
same,GI50,[28],0.802 µM
same,TGI,[28],> 100 µM
same,GI50,[29],1.99 µM
same,TGI,[29],> 100 µM
same,GI50,[30],2.62 µM
same,TGI,[30],> 100 µM
same,GI50,[31],0.5 µM
same,TGI,[31],> 100 µM
same,GI50,[32],0.975 µM
same,TGI,[32],6.9 µM
same,GI50,[33],0.544 µM
same,TGI,[33],> 100 µM
same,GI50,[34],4.97 µM
same,TGI,[34],> 100 µM
same,GI50,[35],3.72 µM
same,TGI,[35],> 100 µM
same,GI50,[36],4.3 µM
same,TGI,[36],> 100 µM
same,GI50,[37],0.849 µM
same,TGI,[37],> 100 µM
same,GI50,[38],1.56 µM
same,TGI,[38],> 100 µM
same,GI50,[39],0.658 µM
same,TGI,[39],5.04 µM
same,GI50,[40],4.72 µM
same,TGI,[40],> 100 µM
same,GI50,[41],0.511 µM
same,TGI,[41],> 100 µM
same,GI50,[42],0.7 µM
same,TGI,[42],5.17 µM
same,GI50,[44],> 100 µM
same,TGI,[44],> 100 µM
same,GI50,[45],2 µM
same,TGI,[45],> 100 µM
same,GI50,[46],4.18 µM
same,TGI,[46],> 100 µM
same,GI50,[47],4.6 µM
same,TGI,[47],> 100 µM
same,GI50,[48],1.53 µM
same,TGI,[48],> 100 µM
same,GI50,[49],0.869 µM
same,TGI,[49],4.75 µM
same,GI50,[50],0.359 µM
same,TGI,[50],> 100 µM
same,GI50,[51],0.474 µM
same,TGI,[51],> 100 µM
same,GI50,[52],1.85 µM
same,TGI,[52],> 100 µM
same,GI50,[53],> 100 µM
same,TGI,[53],> 100 µM
same,GI50,[54],4.47 µM
same,TGI,[54],> 100 µM
same,GI50,[55],> 100 µM
same,TGI,[55],> 100 µM
same,GI50,[56],0.906 µM
same,TGI,[56],> 100 µM
same,GI50,[57],0.924 µM
same,TGI,[57],> 100 µM
